Measurements taken from US12180507B2, “Engineered platforms to stabilize both hepatocytes and endothelial cells in vitro” (Colorado State University Research Foundation, priority 2015, dated 2024).
Structures can show the parent of a compound that is named as a salt.

Columns and labels:
[1] = system: LSECs; conditions: known from the literature; cited from earlier work
[2] = established in previous literature; basis for dosing up to 100xCmax; read-out: Cmax (the maximum plasma concentration); cited from earlier work
[3] = system: tri-cultures of hepatocytes with 3T3-J2 fibroblasts and either liver sinusoidal endothelial cells (LSECs) or human umbilical vein endothelial cells (HUVECs); experiment: Drug toxicity screen: albumin secretions in hepatocyte/fibroblast/endothelia tri-cultures; conditions: azathioprine 100x and 50xCmax, dacarbazine 100xCmax, monocrotaline 100xCmax; 6 days, serum-free media; tri-cultures with LSECs or HUVECs compared with hepatocyte/3T3-J2 co-cultures

In the case of `Cn1cnc([N+](=O)[O-])c1Sc1ncnc2nc[nH]c12` [azathioprine], the “Toxicity specific to LSECs rather than hepatocytes” value (“Toxicity specific” below) [1] is listed as “toxicity specific to LSECs rather than hepatocytes”, the Cmax [2] is listed as 3.61 µM and the “Albumin secretions (drug toxicity), normalized to DMSO-only controls” value [3] is listed as “more responsive to drug toxicity”.

In the case of `CCN(CC)CCOc1ccc(C(=C(Cl)c2ccccc2)c2ccccc2)cc1` [clomiphene citrate], the “Toxicity specific” value [1] is given as “toxicity specific to LSECs rather than hepatocytes”.

For `CN(C)/N=N/c1[nH]cnc1C(N)=O` [dacarbazine], the “Toxicity specific” value [1] is listed as “toxicity specific to LSECs rather than hepatocytes”, the Cmax [2] is listed as 43.9 µM and the “Albumin secretions (drug toxicity), normalized to DMSO-only controls” value [3] is listed as “more responsive to drug toxicity”.

In the case of `C[C@H]1C(=O)O[C@@H]2CCN3CC=C(COC(=O)[C@](C)(O)[C@]1(C)O)[C@H]23` [monocrotaline], the “Toxicity specific” value [1] is given as “toxicity specific to LSECs rather than hepatocytes”, the Cmax [2] is given as 10 µM and the “Albumin secretions (drug toxicity), normalized to DMSO-only controls” value [3] is given as “more responsive to drug toxicity”.
